Measurements from ChEMBL document CHEMBL1129429, “Structure-activity relationships for the binding of arylpiperazines and arylbiguanides at 5-HT3 serotonin receptors” (J Med Chem, 1996).

Key:
[1] = target: Serotonin 3 (5-HT3) receptor; experiment: Compound was tested for the inhibition of [3H]GR-65630 binding to 5-hydroxytryptamine 3 receptor expressed in NG 108-15 cells; type: cell-based
[2] = species: Rattus norvegicus; experiment: Compound tested for its 5-HT3 -Stimulant potency in rat relative to compound 6 ( Value = 1); type: functional
[3] = species: Oryctolagus cuniculus; experiment: Minimal effective dose for its 5-HT3 -Stimulant potency in rabbit bladder preparation.; type: functional
[4] = species: Rattus norvegicus; experiment: Compound tested for its 5-HT3 -Stimulant potency in rat relative to compound 6 ( Value = 1); Range 0.5-1.3; type: functional
[5] = species: Rattus norvegicus; experiment: Compound tested for its 5-HT3 -Stimulant potency in rat relative to compound 6 ( Value = 1); range 0.3-0.6; type: functional

Structure (SMILES) | Ki ([1]; read-out: Ki) [µM] | also measured
Clc1ccc(N2CCNCC2)cc1 | 2.16 | 
N=C(N)Nc1ccccn1 | > 10 | 
NC=Nc1cccc(Cl)c1 | > 10 | 
Cc1cccc(N2CCN(C)CC2)n1 | 0.56 | 
COc1ccc(N2CCNCC2)c(C)c1 | 0.66 | 
C[N+]1(C)CCN(c2cccc(Cl)c2)CC1 | 1.45 | 
N=C(N)NCCc1ccc(Cl)cc1 | 0.243 | 
NCCNC(=O)c1cccc(Cl)c1 | > 10 | 
CNCCc1cccc(Cl)c1 | > 10 | 
N=C(N)NCCc1ccccc1Cl | 0.15 | 
CN(C)C(=N)N=C(N)Nc1cccc(Cl)c1 | > 10 | 
NCCC(=O)Nc1cccc(Cl)c1 | > 10 | 
CN(C)CCc1cccc(Cl)c1 | > 10 | 
NC(=O)Nc1cccc(Cl)c1 | > 10 | 
COc1ccc(N2CCNCC2)c(OC)c1 | > 10 | 
N=C(N)NCc1cccc(Cl)c1 | 1.2 | 
NCCCCc1cccc(Cl)c1 | > 10 | 
Clc1cccc(CC2=NCCN2)c1 | > 10 | 
N=C(N)NC(=N)Nc1cccc(Cl)c1 | 0.017 | Relative potency [2]: 1; Min effective dose [3]: 0.0066 mg/kg

Structure (SMILES) | Ki ([1]; read-out: Ki) [µM] | also measured
NC(N)=Nc1cccc(Cl)c1 | 0.035 | Min effective dose [3]: 0.15 mg/kg; Relative potency [4]: 0.74
c1ccc(C2CCNCC2)cc1 | > 10 | 
NCCc1cccc(Cl)c1 | > 10 | 
FC(F)(F)c1cccc(N2CCNCC2)c1 | 1.39 | 
c1ccc2c(N3CCNCC3)cccc2c1 | 0.175 | 
c1ccc2cc(N3CCNCC3)ccc2c1 | 0.032 | Relative potency [2]: <0.02; Min effective dose [3]: 0.03 mg/kg
CN1CCN(c2ccc3ccccc3n2)CC1 |  | Ki [1]: 0.003 µM
Cc1cccc(NC(N)=NC(=N)N)c1 | 0.78 | 
Cc1ccc(NC(=N)N=C(N)N)cc1 | > 10 | 
Cc1cccc(NC(=N)N)c1 | 6.52 | 
COc1ccccc1C1(O)CCNCC1 | > 10 | 
NCCCc1cccc(Cl)c1 | > 10 | 
COc1ccc(Cl)cc1/N=C(\N)N=C(N)N | 0.126 | 
C[N+]1(C)CCN(c2cccc(C(F)(F)F)c2)CC1 | > 10 | 
NCCCNc1cccc(Cl)c1 | > 10 | 
Cc1ccc(NC(N)=NC(=N)N)cc1Cl | 0.225 | 
N=C(N)NC(=O)Nc1cccc(Cl)c1 | 1.25 | 
N=C(N)Cc1cccc(Cl)c1 | 1.2 | 
NC(N)=Nc1ccc2ccccc2c1 | 0.025 | Relative potency [2]: 1; Min effective dose [3]: 0.015 mg/kg

Structure (SMILES) | Ki ([1]; read-out: Ki) [µM] | also measured
N=C(N)Nc1ccc(Cl)cc1 | 0.32 | 
NC(N)=Nc1ccccc1Cl | 0.19 | 
N=C(N)/N=C(\N)Nc1cccc([N+](=O)[O-])c1 | 0.22 | 
N=C(N)NC(=N)Nc1ccccc1Cl | 0.062 | 
N=C(N)NC(=N)Nc1ccc2ccccc2c1 | 0.012 | Relative potency [2]: 0.5; Min effective dose [3]: 0.01 mg/kg
COc1cccc(NC(=N)N)c1 | 1.6 | 
N=C(N)NCCc1cccc(Cl)c1 | 0.04 | 
NC(N)=Nc1cccc(C(F)(F)F)c1 | 5.7 | 
Clc1cccc(N2CCNCC2)n1 | 0.015 | 
COc1ccc(N2CCNCC2)cc1 | 1.64 | 
COc1ccc(Cl)cc1N1CCNCC1 | 0.04 | 
c1ccc2nc(N3CCCCC3)ccc2c1 | > 10 | 
COc1ccccc1N1CCNCC1 | 2.5 | 
N=C(N)NC(=N)Nc1ccc(Cl)cc1 [4-CHLOROPHENYLBIGUANIDE] | 0.2 | 
Clc1cccc(N2CCNCC2)c1 [CHLOROPHENYLPIPERAZINE] | 0.062 | Relative potency [2]: <0.02
N=C(N)NC(=N)Nc1ccccc1 [PHENYL BIGUANIDE] | 1.2 | Min effective dose [3]: 0.01 mg/kg; Relative potency [5]: 0.45
N=C(N)Nc1ccccc1 [PHENYLGUANIDINE] | 2.34 | 
c1ccc(N2CCNCC2)cc1 [PHENYLPIPERAZINE] | 3 | 
N=C(N)Nc1cccnc1 [PYRAXININE] | 2.91 | 
